This note sets out measurements from publication PMC3869726, “Inhibition of Human Neutrophil Elastase by Pentacyclic Triterpenes” (PLoS ONE, 2013).

Each structure is given as a SMILES string. “And” between values parts separate entries of the source, which are not always exact repeats. Identical values can stand only once.

In assay [1] the target is T1, Human neutrophil elastase (HNE) (Homo sapiens, UniProt P08246).
T1 construct: HNE (EC 3.4.21.37) from human leukocytes was purchased; purchased Innovative Research Company (Novi, Michigan); host or cells: human leukocytes (natural source)
T1 sequence (P08246 30-247 limits assumed): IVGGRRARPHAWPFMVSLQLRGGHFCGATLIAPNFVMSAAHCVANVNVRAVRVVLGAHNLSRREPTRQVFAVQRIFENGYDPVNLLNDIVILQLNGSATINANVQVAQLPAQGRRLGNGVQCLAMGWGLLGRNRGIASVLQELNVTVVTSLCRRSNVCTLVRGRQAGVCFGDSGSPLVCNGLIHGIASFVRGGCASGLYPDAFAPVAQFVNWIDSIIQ
Kind of assay: HNE activity inhibitory bioassay (MeO-Suc-Ala-Ala-Pro-Val-pNA hydrolysis, absorbance 405 nm). Type of assay: biochemical. To be noted: for IC50: in vitro HNE assay, read-out: IC50, HNE inhibition; for Anti-HNE activity, inhibitory ratio: n = 3; for inhibition at 100 µM: tetracyclic triterpenoids (Table S3).

A further assay deals with T2, HNE (Homo sapiens, UniProt P08246).
T2 construct: HNE (EC 3.4.21.37) from human leukocytes was purchased; purchased Innovative Research Company (Novi, Michigan); host or cells: human leukocytes (natural source)
T2 sequence (P08246 30-247 limits assumed): T1 sequence (P08246 30-247 limits assumed)
In words: 1H NMR spin-lattice relaxation rates (Rns, Rse) of ligand with and without HNE.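 Also: ligand in d6-DMSO with 50 mM phosphate buffer, selective and nonselective spin-lattice rates from an inversion-recovery pulse sequence, computed by initial-rate approximation.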 Type of assay: binding. To be noted: pH 7.0, 298 K.

For assay [2], the system named is acute smoke-induced airway inflammation in mice. In words: Acute smoke-induced lung (airway) inflammation model in mice, BALF analysis.
Assay [3] deals with T1, Human neutrophil elastase (HNE). In words: Enzyme inhibition kinetic analysis of HNE (Michaelis-Menten / Lineweaver-Burk). In kind it is biochemical.
Setting [4] is: smoke exposure, 50 mg/kg intraperitoneal.

By IC50 is commonly meant the midpoint of a concentration-inhibition curve. As to `COC(=O)[C@]12CCC(C)(C)C[C@H]1[C@H]1C(=O)C=C3[C@@]4(C)C=C(C#N)C(=O)C(C)(C)[C@@H]4CC[C@@]3(C)[C@]1(C)CC2` [CDDO-Me, C-28 methyl ester of 2-cyano-3,12-dioxoolen-1,9-dien-28-oic acid, reference compound], the IC50 in assay [1] is 16.6 µM.
With `C[C@H]1[C@H](C)CC[C@]2(C(=O)O)CC[C@]3(C)C(=CC[C@@H]4[C@@]5(C)CC[C@H](O)C(C)(C)[C@@H]5CC[C@]43C)[C@H]12` [Compound 1, ursolic acid], the “Rns/Rse, proton H3” value on HNE (free ligand 1 mM) is 0.93; at HNE (ligand 1 mM + HNE 5 µM) it was 0.73. The “Rns/Rse, proton H12” value at HNE (free ligand 1 mM) was found to be 0.88; on HNE (ligand 1 mM + HNE 5 µM), 0.62. Also, the “Rns/Rse, proton H18” value at HNE (free ligand 1 mM) stood at 0.92; on HNE (ligand 1 mM + HNE 5 µM), 0.81. Further, the “Anti-HNE activity, inhibitory ratio” value was 12.22±6.64% in assay [1] (1 µM compound); 12.2% in assay [1] (1 µM compound, listed as Ursolic acid (1)); 36.47±5.75 % in assay [1] (3 µM compound); 80.84±3.14 % in assay [1] (10 µM compound); 82.98±5.67 % in assay [1] (30 µM compound); “more than 80%” in assay [1] (30 µM compound, listed as ursolic acid). Further, the “Anti-HNE activity, inhibitory ratio” value in assay [1] (100 µM compound) is on record as 88.47±2.96 %. For the same compound, the half-maximal inhibitory concentration (IC50) in assay [1] is 5.51 µM and ~5.51 µM. Further, the “inhibition of the smoke-induced increase in BALF NE” value in assay [2] (50 mg/kg intraperitoneal) came out at 54%. In addition, in assay [2] (50 mg/kg intraperitoneal), the “inhibition of the smoke-induced increase in BALF TNF-α” value was determined as 38%. Also, the “dose with significant inhibition of BALF TNF-α” value in assay [2] (doses 10, 30, 100 mg/kg, dose-dependent) is given as ≥ 10 mg/kg. Besides, the “dose with significant inhibition of BALF NE” value in assay [2] (doses 10, 30, 100 mg/kg, dose-dependent, P<0.05) is recorded as 30 mg/kg. For the same compound, the “levels of BALF NE and TNF-α in vivo” value in assay [2] (smoke exposure) was “significantly suppressed”. Further, the “number of neutrophils in BALF” value in assay [2] (setting [4]) is on record as “significantly reduced”. For the same compound, in assay [2] (setting [4]), the “number of total leukocytes in BALF” value is listed as “significantly reduced”. In assay [3] (0, 3, 10 µM ursolic acid, six substrate concentrations 0.2-2 mM, 37°C), the “mode of HNE inhibition with respect to substrate” value is “competitively inhibits HNE”. Moreover, the “apparent maximum velocity Vmax′, trend” value in assay [3] (as a function of ursolic acid concentration 0-10 µM, P>0.05) is recorded as “invariable”. Moreover, the “apparent Michaelis-Menten constant Kapp, trend” value in assay [3] (ursolic acid increasing from 0 µM to 10 µM, P<0.05) is on record as “increased”.
`CC1(C)[C@@H](O)CC[C@]2(C)[C@H]3C(=O)C=C4[C@@H]5C[C@@](C)(C(=O)O)CC[C@]5(C)CC[C@@]4(C)[C@]3(C)CC[C@@H]12` [Compound 3, glycyrrhetinic acid]: the “Rns/Rse, proton H3” value at HNE (free ligand 1 mM) is recorded as 0.96; at HNE (ligand 1 mM + HNE 5 µM), 0.74. Also, the “Rns/Rse, proton H5” value at HNE (free ligand 1 mM) is on record as 0.92; on HNE (ligand 1 mM + HNE 5 µM) it was 0.84. Besides, the “Rns/Rse, proton H12” value on HNE (free ligand 1 mM) is on record as 0.94; on HNE (ligand 1 mM + HNE 5 µM) it was 0.85. The “Rns/Rse, proton H18” value is 2.29 at HNE (free ligand 1 mM) and 0.81 at HNE (ligand 1 mM + HNE 5 µM). Besides, the “Anti-HNE activity, inhibitory ratio” value in assay [1] (1 µM compound) is reported as 0.06±6.40%; in assay [1] (3 µM compound) it was 1.05±5.24%; in assay [1] (10 µM compound), 21.09±4.96%; in assay [1] (30 µM compound), 45.84±0.41 %; in assay [1] (100 µM compound) it was 75.20±2.89 %. For the same compound, in assay [1], the IC50 is ~36.9 µM.
For the compound `CC1(C)[C@@H](O[C@H]2O[C@H](C(=O)O)[C@@H](O)[C@H](O)[C@H]2O[C@@H]2O[C@H](C(=O)O)[C@@H](O)[C@H](O)[C@H]2O)CC[C@]2(C)[C@H]3C(=O)C=C4[C@@H]5C[C@@](C)(C(=O)O)CC[C@]5(C)CC[C@@]4(C)[C@]3(C)CC[C@@H]12` [Compound 4, glycyrrhizin], the “Rns/Rse, proton H9” value on HNE (free ligand 1 mM) and on HNE (ligand 1 mM + HNE 5 µM) was 0.64 in each case. The figures for the “Rns/Rse, proton H12” value at HNE (free ligand 1 mM) and at HNE (ligand 1 mM + HNE 5 µM) were 0.87 and 0.74, respectively. The results for the “Rns/Rse, proton glc-H1’” value at HNE (free ligand 1 mM) and at HNE (ligand 1 mM + HNE 5 µM) were 0.54 and 0.31, respectively. The “Rns/Rse, proton glc-H1”” value on HNE (free ligand 1 mM) came to 0.49; at HNE (ligand 1 mM + HNE 5 µM), 0.47. Besides, the “Anti-HNE activity, inhibitory ratio” value in assay [1] (1 µM compound) worked out at 10.25±1.73%; in assay [1] (3 µM compound) it was 19.00±6.99 %; in assay [1] (10 µM compound), 28.21±4.84 %; in assay [1] (30 µM compound), 40.89±1.28 %; in assay [1] (100 µM compound) it was 78.66±1.99 %. Moreover, the IC50 in assay [1] was ~27.6 µM.
Take `C=C(C)[C@@H]1CC[C@]2(C(=O)O)CC[C@]3(C)[C@H](CC[C@@H]4[C@@]5(C)CC[C@H](O)C(C)(C)[C@@H]5CC[C@]43C)[C@@H]12` [Compound 5, betulinic acid]: the figures for the “Rns/Rse, proton H13” value at HNE (free ligand 1 mM) and on HNE (ligand 1 mM + HNE 5 µM) were 1.51 and 0.97, respectively. Also, the “Rns/Rse, proton H19” value is reported as 0.82 at HNE (free ligand 1 mM) and 0.79 at HNE (ligand 1 mM + HNE 5 µM). Besides, the results for the “Rns/Rse, proton H24” value at HNE (free ligand 1 mM) and on HNE (ligand 1 mM + HNE 5 µM) were 1.02 and 0.95, respectively. In addition, the “Rns/Rse, proton H29a” value at HNE (free ligand 1 mM) turned out to be 0.96; at HNE (ligand 1 mM + HNE 5 µM), 0.95. For the same compound, the figures for the “Rns/Rse, proton H29b” value on HNE (free ligand 1 mM) and at HNE (ligand 1 mM + HNE 5 µM) were 0.97 and 0.96, respectively. The “Anti-HNE activity, inhibitory ratio” value in assay [1] (1 µM compound) was 8.25±1.88%; in assay [1] (3 µM compound) it was 46.57±2.47 %; in assay [1] (10 µM compound), 74.20±2.32 %; in assay [1] (30 µM compound), 80.58±2.21 %; in assay [1] (30 µM compound, listed as betulinic acid) it was “more than 80%”; in assay [1] (100 µM compound) it was 82.41±1.37 %. Also, the IC50 in assay [1] was ~6.83 µM.
Regarding `C=C(C)[C@@H]1CC[C@]2(C)CC[C@]3(C)[C@H](CC[C@@H]4[C@@]5(C)CC[C@H](O)C(C)(C)[C@@H]5CC[C@]43C)[C@@H]12` [Compound 6, lupeol], the “Rns/Rse, proton H13” value at HNE (free ligand 1 mM) turned out to be 1.67; on HNE (ligand 1 mM + HNE 5 µM) it was 1.27. In addition, the “Rns/Rse, proton H19” value on HNE (free ligand 1 mM) is given as 1.03; on HNE (ligand 1 mM + HNE 5 µM) it was 1.00. The “Rns/Rse, proton H24” value at HNE (free ligand 1 mM) and at HNE (ligand 1 mM + HNE 5 µM) was 1.03 throughout. The “Rns/Rse, proton H29a” value on HNE (free ligand 1 mM) and at HNE (ligand 1 mM + HNE 5 µM) was 1.23 in each case. Besides, the results for the “Rns/Rse, proton H29b” value on HNE (free ligand 1 mM) and at HNE (ligand 1 mM + HNE 5 µM) were 1.24 and 1.22, respectively. Also, the “Anti-HNE activity, inhibitory ratio” value in assay [1] (1 µM compound) is on record as 9.38±6.80%; in assay [1] (3 µM compound), 19.01±10.00 %; in assay [1] (10 µM compound), 51.92±15.22 %; in assay [1] (30 µM compound) it was 88.00±6.26 %; in assay [1] (30 µM compound, listed as lupeol), “more than 80%”; in assay [1] (100 µM compound), 93.56±1.19 %. In addition, the IC50 in assay [1] is ~8.2 µM.
The term inhibition denotes the drop in the measured response relative to a control, in per cent. Low readings indicate a weak effect, high ones a strong effect. As to `CC(C)(O)[C@@H]1CC[C@](C)([C@H]2[C@@H](O)C[C@@]3(C)[C@@H]4C[C@H](O[C@@H]5O[C@H](CO)[C@@H](O)[C@H](O)[C@H]5O)[C@H]5C(C)(C)[C@@H](O[C@@H]6OC[C@@H](O)[C@H](O)[C@H]6O)CC[C@@]56C[C@@]46CC[C@]23C)O1` [Compound 7, astragaloside IV], in assay [1], testing at 100 µM gave an inhibition of 3.27%. Besides, the “levels of BALF NE and TNF-α in vivo” value in assay [2] (smoke exposure) is listed as “did not observe the inhibitory effects”. For the same compound, in assay [2] (smoke exposure, intraperitoneal, negative control), the airway inflammation entry is “did not inhibit”.
As to `CC(C)=CCCC(C)(OC1OC(CO)C(O)C(O)C1O)C1CCC2(C)C1C(O)CC1C3(C)CCC(O)C(C)(C)C3C(OC3OC(CO)C(O)C(O)C3OC3OC(C)C(O)C(O)C3O)CC12C` (stereo not drawn) [Compound 8], the inhibition at 100 µM in assay [1] turned out to be 4.01%.
Compound `CC(=O)OC(C)(C)/C=C/C(=O)[C@](C)(O)[C@H]1[C@H](O)C[C@@]2(C)[C@@H]3CC=C4[C@@H](C[C@H](O)C(=O)C4(C)C)[C@]3(C)C(=O)C[C@]12C` [Compound 9] registered an inhibition at 100 µM in assay [1] of 5.77%.
Compound `CC(C)=CCCC1(C)CCC2(C)C3CCC4(C)C(C)C(=O)CCC4C3(C)CCC2(C)C1` (stereo not drawn) [Compound 10] gave an inhibition at 100 µM in assay [1] of 2.33%.
Regarding `CC(=O)OC1CC(O)C23COC(O)C1(C)C2CC(O)C1(C)C3C(=O)C(OC(C)=O)C2(C)C(c3ccoc3)CC3OC321` (stereo not drawn) [Compound 11], in assay [1], 100 µM produced 4.28% inhibition.
On to `CC(C)C1=CC(=O)C(C)(C2[C@H](O)C[C@@]3(C)[C@@H]4CC=C5[C@@H](CC[C@@H](OC6OCC(O)C(O)C6OC6OC(C)C(O)C(O)C6O)C5(C)C)[C@]4(C)C(=O)C[C@]23C)O1` (stereo partly drawn) [Compound 12], for which, in assay [1], testing at 100 µM gave an inhibition of 0.8%.
With `CC(C)(C)C(=O)Oc1ccc(S(=O)(=O)Nc2ccccc2C(=O)NCC(=O)O)cc1` [ONO-5046, Sivelestat sodium hydrate, reference compound], the “smoke-induced increase in BALF inflammatory cells and proinflammatory cytokine levels” value in assay [2] (intraperitoneal, positive control) is “prevented”.
